In the supplement of paper PMC10307832:

What was measured:
Assay in all cases: relative viability (nuclei count vs DMSO), 5 days (fraction); higher = more cells survive
[1] = compound: C1/C(=C\C2=CC=CS2)/C(=O)/C(=C/C3=CC=CS3)/C1 + O=C(c1cc(Cc2n[nH]c(=O)c3ccccc23)ccc1F)N1CCN(C(=O)C2CC2)CC1 [Olaparib] (partner 8 µM)
Procedure, shortened: (§1)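 Lung cancer cell lines were seeded in 1536-well plates and dosed by pin tool the next day, with either a single drug or a fixed anchor-drug dose combined with five library-drug doses (not always all listed) spaced in √10 steps. Five days later, one step fixed the cells and stained their nuclei (final 0.05% Triton X-100, 1% formaldehyde, 1 ug/ml Hoechst), and nuclei were counted on 4× images. Relative viability is the nuclei count in treated wells divided by the count in vehicle wells, and each value is the median of duplicate plates.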

[2] = compound: C1/C(=C\C2=CC=CS2)/C(=O)/C(=C/C3=CC=CS3)/C1 + C[C@@H](Oc1cc(-c2cnn(C3CCNCC3)c2)cnc1N)c1c(Cl)ccc(F)c1Cl [Crizotinib] (partner 1 µM)
Procedure, shortened: as §1

[3] = compound: C1/C(=C\C2=CC=CS2)/C(=O)/C(=C/C3=CC=CS3)/C1 + C[C@]1(O)C[C@@H](c2nc(-c3ccc4ccc(-c5ccccc5)nc4c3)c3c(N)nccn32)C1 [Linsitinib] (partner 1 µM)
Procedure, shortened: as §1

[4] = compound: C1/C(=C\C2=CC=CS2)/C(=O)/C(=C/C3=CC=CS3)/C1 + Cc1nc(NC(=O)N2CCC[C@H]2C(N)=O)sc1-c1ccnc(C(C)(C)C(F)(F)F)c1 [Alpelisib] (partner 2 µM)
Procedure, shortened: as §1

Cell Line | relative viability ([1]; first compound 0.2 µM) | relative viability ([1]; first compound 0.6325 µM) | relative viability ([1]; first compound 2 µM) | relative viability ([1]; first compound 6.325 µM) | relative viability ([1]; first compound 20 µM) | relative viability ([2]; first compound 0.2 µM) | relative viability ([2]; first compound 0.6325 µM) | relative viability ([2]; first compound 2 µM) | relative viability ([2]; first compound 6.325 µM) | relative viability ([2]; first compound 20 µM) | relative viability ([3]; first compound 0.2 µM) | relative viability ([3]; first compound 0.6325 µM) | relative viability ([3]; first compound 2 µM) | relative viability ([3]; first compound 6.325 µM) | relative viability ([3]; first compound 20 µM) | relative viability ([4]; first compound 0.2 µM) | relative viability ([4]; first compound 0.6325 µM) | relative viability ([4]; first compound 2 µM) | relative viability ([4]; first compound 6.325 µM) | relative viability ([4]; first compound 20 µM)
201T | 0.866 | 0.856 | 0.858 | 0.775 | 0.84 | 1.05 | 1.04 | 1.07 | 0.996 | 1.01 | 1.08 | 0.989 | 1.16 | 0.9 | 0.996 | 1.01 | 0.964 | 1.08 | 0.934 | 1
A549 | 0.352 | 0.283 | 0.642 | 0.286 | 0.354 | 0.825 | 0.813 | 0.823 | 0.767 | 0.738 | 0.636 | 0.556 | 0.628 | 0.516 | 0.567 | 0.608 | 0.867 | 0.746 | 0.483 | 0.73
A-427 | 0.802 | 0.797 | 0.762 | 0.467 | 0.786 | 1.06 | 0.888 | 0.946 | 0.813 | 0.955 | 1.14 | 1.12 | 1.11 | 1.06 | 1.15 | 1.12 | 1.06 | 1.18 | 1.04 | 1.01
ABC-1 | 1.02 | 0.984 | 1.11 | 0.842 | 0.779 | 1.05 | 1.21 | 1.25 | 1.01 | 0.92 | 0.931 | 0.879 | 0.882 | 0.671 | 0.802 | 1.06 | 1.17 | 1.11 | 0.881 | 0.739
BEN | 1.15 | 1.03 | 1.19 | 1.04 | 0.944 | 0.941 | 0.947 | 1.02 | 0.861 | 0.706 | 0.96 | 0.923 | 0.877 | 0.841 | 0.757 | 1.02 | 0.981 | 0.977 | 0.972 | 1.07
CAL-12T | 0.691 | 0.749 | 0.742 | 0.648 | 0.733 | 0.839 | 0.912 | 0.673 | 0.362 | 0.596 | 0.837 | 0.964 | 0.764 | 0.744 | 0.92 | 1.33 | 1.15 | 0.95 | 0.856 | 1.13
COR-L23 | 0.408 | 0.367 | 0.323 | 0.388 | 0.325 | 0.536 | 0.69 | 0.639 | 0.592 | 0.633 | 0.981 | 0.921 | 0.875 | 0.838 | 0.887 | 0.772 | 0.829 | 0.818 | 0.722 | 0.686
COR-L 105 | 0.753 | 0.757 | 0.646 | 0.434 | 0.618 | 0.861 | 1.03 | 0.885 | 0.695 | 0.646 | 0.976 | 0.905 | 0.939 | 0.766 | 0.878 | 1.36 | 1.02 | 0.902 | 0.728 | 0.913
Calu-6 | 0.548 | 0.595 | 0.55 | 0.586 | 0.524 | 0.845 | 0.873 | 0.846 | 0.764 | 0.772 | 1.05 | 1.05 | 0.94 | 0.921 | 0.835 | 0.971 | 1.08 | 1.04 | 0.849 | 1.01
ChaGo-K-1 | 0.407 | 0.413 | 0.381 | 0.233 | 0.169 | 1.16 | 1.23 | 1.08 | 1.05 | 0.76 |  |  |  |  |  |  |  |  |  | 
EBC-1 | 0.687 | 0.754 | 0.652 | 0.593 | 0.69 | 0.204 | 0.213 | 0.191 | 0.189 | 0.22 | 0.904 | 0.973 | 0.887 | 0.801 | 0.942 | 0.852 | 0.923 | 0.947 | 0.786 | 0.845
EKVX | 0.884 | 0.734 | 0.951 |  | 0.821 | 1.01 | 0.982 | 0.922 | 0.929 | 0.926 | 1.1 | 1.05 | 0.974 | 0.776 | 1 | 0.878 | 0.85 | 0.992 | 0.626 | 0.855
EMC-BAC-2 | 0.51 | 0.495 | 0.484 | 0.424 | 0.514 | 0.789 | 0.792 | 0.751 | 0.59 | 0.695 | 0.811 | 0.787 | 0.84 | 0.761 | 0.792 | 0.743 | 0.75 | 0.694 | 0.655 | 0.696
EPLC-272H | 0.858 | 0.907 | 0.627 | 0.506 | 0.579 | 1 | 0.885 | 1.01 | 0.797 | 0.735 | 1.29 | 1.07 | 1.22 | 1.19 | 1.03 | 1.1 | 0.881 | 1.05 | 0.831 | 0.841
H3255 | 0.635 | 0.59 | 0.635 | 0.509 | 0.535 | 0.847 | 1.06 | 0.793 | 0.8 | 0.845 | 0.949 | 0.92 | 0.909 | 0.728 | 0.913 | 0.759 | 0.553 | 0.661 | 0.66 | 0.704
HARA | 1.11 | 0.862 | 0.944 | 0.716 | 0.83 | 0.985 | 1.05 | 1.03 | 0.758 | 1.03 | 0.968 | 1.06 | 0.898 | 0.242 | 0.902 | 0.802 | 0.78 | 0.885 | 0.598 | 0.861
HCC-15 | 0.784 | 0.771 | 0.707 | 0.656 | 0.66 | 0.833 | 0.881 | 0.771 | 0.779 | 0.79 | 0.899 | 0.921 | 0.846 | 0.734 | 0.888 | 0.926 | 0.934 | 0.823 | 0.845 | 0.871
